# Results as given in patent US20050255493A1, “Molecular targeting of the IGF-1 receptor” (priority 2002, published 2005).
# Assays:
# DU145 cells = experiment: Etoposide-induced apoptosis in DU145 cells (caspase 3/7 activation, annexin V staining); type: cell-based, human; conditions: 200 nM, annexin staining and caspase 3/7 activation
# Method: FIG. 13 illustrates the effect of siRNA R4 on apoptosis in prostate cancer cells. DU145 cells were transfected with 200 nM R4 or scrambled control, and after 48 hr were treated with etoposide or vehicle without drug. After overnight incubation at 37° C. the incidence of apoptosis was measured by caspase 3/7 activation assay (Promega; left panel), or by flow cytometry after staining with annexin V and propodium iodide (right panel).
# MDA-MB-231 cells = experiment: Clonogenic survival and post-irradiation survival (SF2) of transfected MDA-MB-231 cells; type: cell-based, human; conditions: MDA-MB-231, 100 nM
# Method: FIG. 7 A) MDA-MB-231 cells transfected with 100 nM RNA duplexes were serum-starved overnight and treated with 50 nM IGF-I for 30 min. […] Results represent mean±sem of colony counts in triplicate dishes. Similar results were obtained in two further clonogenic assays. • C) Clonogenic survival of transfected MDA-MB-231 cells that were unirradiated or irradiated at 2Gy. The fraction surviving 2Gy irradiation (SF2) is shown as mean±sem of three independent assays.
# The effect of transfection with 100 nM ASO4 or siRNA duplexes R4 and R5, equivalent to strongly and weakly hybridizing ASOs respectively, on colony forming efficiency and post-irradiation survival was also evaluated. […] This in turn illustrates the utility of hybridisation to the scanning ASO array in the selection of siRNA reagents, since relative hybridisation to the array is found to be predictive of activity in RNA interference and biological efficacy.
# IGF1R mRNA = experiment: Oligonucleotide scanning array hybridisation with labelled transcript; type: binding, human; conditions: scanning array, peak 4 region (FIG. 11B)
# Method: Scanning arrays complementary to the region of the IGF1R mRNA from position 537-685 were prepared using the standard techniques described in Southern E. M. et al., Nucleic Acids Res., 1994, 22(8): 1368-1373; and Sohail, M. and Southern, E. M. “Using oligonucleotide scanning arrays to find effective antisense reagents”, Methods in Molecular Biology, vol. 170: DNA Arrays: Methods and Protocols, Ed J. B. Rampal, Humana Press Inc., Totowa, N.J.
# The scanning arrays comprise sets of oligonucleotides of various lengths. A series of oligonucleotides, complementary to the target mRNA, is made by sequential coupling of nucleotides to a solid surface. The DNA synthesis reagents are applied to a confined area on the surface of the solid support using a mask. The mask is shifted along the surface after each round of coupling, resulting in a series of oligonucleotides each complementary to a region of the target sequence.
# • 2. Remove 1 μL for quantitation (see below). • 3. Remove unincorporated label by Sephadex® G25 column chromatography (see Note 11). • 4. Save 1 μL of the purified transcript for quantitation (see below). • 5. Check the integrity of the transcript by denaturing polyacrylamide gel electrophoresis (10). • 6. Add 10 μL of the scintillation fluid to the samples saved in Steps 2 and 4. • 7. Mix by vortexing and count the samples in a scintillation counter for 1 min. • 8. Calculate the percent incorporation: [formula] • 9. Calculate the amount of RNA made: [formula] Hybridisation to Arrays Made on Polypropylene • 1. Place the array in the hybridisation tube, coiling it in a spiral. • 2. Dilute the radiolabelled transcript in an appropriate volume (10-20 mL depending upon the size of the array and the hybridisation tube) of hybridisation buffer. The mix should cover the array along the length of the tube. • 3. Place items 1 and 2 in the oven at desired temperature for 30 min. Also put approximately 100 mL of the hybridisation buffer in the oven: this is to be used to wash the array at the end of hybridisation. • 4. Pour the hybridisation mix into the tube containing the array and hybridise for 3-4 h. • 5. Remove the hybridisation mix. Briefly wash the array with the hybridisation buffer from Step 3, air dry, cover with cling film and expose to a storage phosphor screen for 16-20 h (see Note 12). • 6. Scan the screen on PhosphorImager or STORM and analyse the image using xvseq (see below). Hybridisation to Arrays Made on Glass • 1. Clean the non-array glass plate with acetone and ethanol to ensure it is grease-free and siliconise it by treatment with dimethyl dichlorosilane solution and place it in lidded box. Also place moist paper towel in the box. • 2. Dilute the radiolabelled transcript in an appropriate volume of the hybridisation buffer (for example, for an array of 250 mm×50 mm use 500-750 μL). • 3. Place items 1 and 2 in an incubator at desired temprature for 30 min. Also put approximately 100 mL of the hybridisation buffer in the oven: this is to be used to wash the array at the end of hybridisation. • 4. Using a micropipette, pipette the hybridisation mix in a line evenly along the length of the non-array glass plate, avoiding formation of air bubbles. • 5. Starting at one end, carefully place the scanning array (face down) on top of the hybridisation mix. The mix will spread out and form a thin film between the two plates. Incubate for 3-4 h. • 6. Separate the plates from each other and wash the array plate with hybridisation buffer to remove unbound mix. Drain the plate, air dry, cover with cling film and expose to a storage phosphor screen for 16-20 h. • 7. Scan the screen on PhosphorImager or STORM and analyse the image using xvseq (see below). Alternative Hybridisation Protocol for Glass or Polypropylene • 1. Assemble with clips the array plate (or polypropylene array pasted with PhotoMount™ on a glass plate) and the non-array plate, using rubber tubing as spacers on two sides. • 2. […]
substance,measurement,setting,value
"R4: RNAi duplex CAAUGAGUACAACUACCGCTT / TTGUUACUCAUGUUGAUGGCG, SEQ ID NO:30 (CAAUGAGUACAACUACCGCNN; second strand not cited, chemistry not fully specified)",Etoposide-induced apoptosis,DU145 cells,enhanced etoposide-induced apoptosis
same,Survival after 2Gy irradiation (SF2),MDA-MB-231 cells; 2Gy,significant inhibition of survival after 2Gy irradiation
same,Clonogenic survival,MDA-MB-231 cells; unirradiated,inhibited survival
same,Difference in hybridization intensity between the 19mer ASOs equivalent to R4 and R5,IGF1R mRNA,~6.5 fold
